Reference: publication PMC9032233, “2-{5-[(Z,2Z)-2-Chloro-3-(4-nitrophenyl)-2-propenylidene]-4-oxo-2-thioxothiazolidin-3-yl}-3-methylbutanoic Acid as a Potential Anti-Breast Cancer Molecule” (International Journal of Molecular Sciences, 2022)
“And” between values parts separate entries of the source, which are not always exact repeats. Equal entries are not always repeated.

Columns and labels:
[1] = Parallel artificial membrane permeability assay (PAMPA); assay type: in vitro ADME; conditions: 200 µM in PBS pH 7.4, 5 h at RT, read-out: permeability coefficient Pe
Protocol: All in vitro assays used for the evaluation of Les-3331 ADME-Tox parameters were described previously. In brief, for the determination of permeability, Pre-coated PAMPA Plate System Gentest^TM was purchased from Corning (Tewksbury, MA, USA). […] PAMPA plates with compounds added to the donor wells were incubated for 5 h at RT. UPLC-MS Waters ACQUITY—TQD system with the TQ Detector (Waters, Milford, MI, USA) was used next for determination of compounds concentrations in donor and acceptor wells, which were required for calculation of permeability coefficient Pe according to formulas provided by the manufacturer.

[2] = test system: MCF-7 human breast cancer cells; assay: MTT cell viability assay, MCF-7; assay type: cell-based; conditions: MCF7, MCF-7, MTT, 24 h incubation
Protocol: Cell culture MCF-7, MDA-MB-231 human breast cancer cells, and fibroblasts skin cells were purchased from the ATCC—American Type Culture Collection. All cell lines were maintained in DMEM (Corning, Kennebunk, ME, USA). The medium was supplemented with 10% fetal bovine serum—FBS (Eurx, Gdansk, Poland) and 1% antimicrobial substances: penicillin–streptomycin (Corning, Kennebunk, ME, USA). The incubator asserted appropriate growth conditions required for these cell lines: 5% of CO2, at 37 °C, with the humidity between 90–95%. Cells were seeded in 100 mm round dishes. An amount of 0.05% trypsin containing 0.02% EDTA (Corning, Kennebunk, ME, USA) and phosphate-buffered saline (PBS) without calcium and magnesium (Corning, Kennebunk, ME, USA) was used to detach cells from a plate once 80–90% cell confluence was achieved. In the next step, cells were reseeded in six-well plates (density—5 × 10^5 of cells per well) in 1 mL of DMEM after a 24 h incubation used in the presented tests.
To examine the effect of Les-3331 on cell viability, the MTT assay was performed. […] The absorbance was measured using Spectrophotometer UV-VIS Helios Gamma (Unicam/ThermoFisher Scientific Inc., Waltham, MA, USA) at a wavelength of 570 nm. The obtained absorbance in untreated control cells was taken as 100%, while the survival of the cells incubated with tested compounds presented as a percentage of the control value.

[3] = Metabolic stability with rat liver microsomes (RLMs); assay type: in vitro ADME
Protocol: The metabolic stability was estimated using rat liver microsomes (RLMs) obtained from Sigma-Aldrich (St. Louis, MO, USA). Les-3331 was incubated in the presence of RLMs and NADPH Regeneration System (Promega, Madison, WI, USA) in Tris-HCl buffer (pH 7.4) for 120 min. Cold ethanol was added next to stop the reaction. The reaction mixture was centrifuged. The aforementioned UPLC-MS device was used to analyze the supernatant. MS/MS ion fragment analyses were performed for Les-3331 and the main metabolite. The in silico prediction of possible Les-3331 metabolic pathways was performed by MetaSite 8.0.1. Software (Molecular Discovery Ltd., Hertfordshire, UK).

CYP2D6 = biological target: T1, CYP2D6 (Homo sapiens, UniProt P10635); assay: Luminescent CYP2D6 P450-Glo assay; assay type: in vitro ADME; conditions: at the highest dose 25 µM
T1 construct: purchased Promega (Madison, WI, USA)
Protocol: For investigation of potential drug-drug interactions, the luminescent CYP3A4 and CYP2D6 P450-Glo assays obtained from Promega® (Madison, WI, USA) were used. Les-3331 was tested in triplicate at the final concentrations from 0.01 to 25 µM according to the protocols provided by Promega®. The reference inhibitors were tested at 1 µM. The luminescent signal was measured using a microplate reader, EnSpire PerkinElmer (Waltham, MA, USA).

LC3A = LC3A concentration in MCF-7 cell lysates (ELISA); assay type: cell-based, human; conditions: 24 h, control 6.726 ng/mL
Protocol: (§1) High sensitivity assay kits (EIAab Science Co., Ltd., Wuhan, China; Abcam plc., Cambridge, United Kingdom; Cloud-Clone Corp., Katy, TX, USA) were used to determine the concentrations of selected proteins in cell lysates […] In brief, after trypsinization, cells were washed thrice with cold PBS and centrifuged at 1000× g for 5 min at 4 °C. Then, cells (1.5 × 10^6) were suspended in lysis buffer for whole-cell lysates. After the second centrifugation, cellular supernatants were frozen immediately at −70 °C. Untreated cancer cells were taken as a control.
(§2) The microtiter plates provided in the kits were pre-coated with an antibody specific to the analyzed antigen. The tests were carried out according to the manufacturer’s protocols.

Beclin-1 = Beclin-1 concentration in MCF-7 cell lysates (ELISA); assay type: cell-based, human; conditions: 24 h, control 7.965 ng/mL
Protocol: as §1, §2

topoisomerase IIα = assay: Flow cytometric analysis of anti-topoisomerase IIα antibody, MCF-7; assay type: cell-based, human; conditions: 24 h
Protocol: To confirm the ELISA results, flow cytometric analysis of Top II activity using an anti-topoisomerase IIα antibody conjugated with phycoerythrin (PE) was performed. The Les-3331 and etoposide were used at 1 µM and 5 µM concentrations. Cancer cells were incubated for 24 h with tested compounds and the assay was carried out in accordance with the manufacturer’s protocol. Briefly, cells were centrifuged and resuspended in 4% formaldehyde. Then, cells were incubated at RT for 15 min and subsequently washed with excess PBS and centrifuged. Thereafter, ice-cold 90% methanol was added to the cells and they were incubated for 1 h in an ice bath. Next, cells were washed with excess PBS and centrifuged again. In the meantime, the primary antibody was diluted (1:100) in PBS. Then, cells were resuspended in the prepared primary antibody (100 µL) and incubated at RT, protected from light, for 1 h. Finally, cells were washed and resuspended in PBS (300 µL). The prepared samples were measured immediately. Analysis of the obtained results was performed using a flow cytometer (BD FACSCanto II, Becton Dickinson Biosciences Systems, San Jose, CA, USA) and FACSDiva software (v6.1.3, BD Biosciences Systems, San Jose, CA, USA). The equipment was calibrated with BD Cytometer Setup and Tracking Beads (BD Biosciences, San Diego, CA, USA).

T1 sequence (P10635 whole entry): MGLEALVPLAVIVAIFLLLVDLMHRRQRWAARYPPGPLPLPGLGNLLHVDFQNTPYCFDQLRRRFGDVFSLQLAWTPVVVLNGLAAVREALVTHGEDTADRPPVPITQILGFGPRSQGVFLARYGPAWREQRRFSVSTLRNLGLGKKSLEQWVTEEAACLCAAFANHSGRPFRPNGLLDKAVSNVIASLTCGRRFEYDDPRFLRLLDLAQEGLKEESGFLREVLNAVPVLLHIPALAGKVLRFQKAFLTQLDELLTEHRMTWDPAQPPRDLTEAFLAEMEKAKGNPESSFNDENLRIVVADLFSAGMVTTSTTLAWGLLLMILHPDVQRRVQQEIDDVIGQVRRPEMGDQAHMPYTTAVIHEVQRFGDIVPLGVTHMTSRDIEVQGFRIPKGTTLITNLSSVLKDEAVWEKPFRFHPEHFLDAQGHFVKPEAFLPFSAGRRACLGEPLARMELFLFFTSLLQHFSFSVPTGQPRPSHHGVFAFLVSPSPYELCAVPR

With CC(C)C(C(=O)O)N1C(=O)/C(=C/C(Cl)=C/c2ccc([N+](=O)[O-])cc2)SC1=S (stereo not drawn) [Les-3331, 2-{5-[(Z,2Z)-2-chloro-3-(4-nitrophenyl)-2-propenylidene]-4-oxo-2-thioxothiazolidin-3-yl}-3-methylbutanoic acid] the Papp at 5 h, 200 µM [1] was 0.96 ×10⁻⁶ cm/s, the IC50 [2] was 5.02 µM and the “% of the Remaining Substrate” value ([3]; RLMs, 120 min incubation) was 52% and 52.03%. The “Proposed Metabolic Pathway” value ([3]; main metabolite M1, RLMs 120 min) was “decomposition”, the “Proposed Metabolic Pathway” value ([3]; metabolite M2, RLMs 120 min) was “decomposition and hydroxylation” and the “Proposed Metabolic Pathway” value ([3]; metabolite M3, RLMs 120 min) was “decomposition and dehydrogenation”. For the same compound, the “Proposed Metabolic Pathway” value ([3]; metabolite M4, RLMs 120 min) was “decomposition”, the “effect on CYP2D6 activity” value (CYP2D6) was “slight inhibition” and the LC3A concentration (LC3A; MCF-7, 1 µM) was 4.917 ng/mL. The LC3A concentration (LC3A; MCF-7, 5 µM) was 1.127 ng/mL, the Beclin-1 concentration (Beclin-1; 1 µM) was 7.435 ng/mL and the Beclin-1 concentration (Beclin-1; 5 µM) was 3.948 ng/mL. For the same compound, the “% of cells without anti-topoisomerase IIα antibody” value (topoisomerase IIα; MCF-7, 1 µM) was 34.1% and the “% of cells without anti-topoisomerase IIα antibody” value (topoisomerase IIα; MCF-7, 5 µM) was 49.2%.
In the case of COc1cc([C@@H]2c3cc4c(cc3[C@@H](O[C@@H]3O[C@@H]5CO[C@@H](C)O[C@H]5[C@H](O)[C@H]3O)[C@H]3COC(=O)[C@H]23)OCO4)cc(OC)c1O [Etoposide, reference compound], the IC50 [2] is reported as over 50 µM, the LC3A concentration (LC3A; MCF-7, 1 µM) is reported as 4.505 ng/mL and the LC3A concentration (LC3A; MCF-7, 5 µM) is reported as 4.582 ng/mL. The Beclin-1 concentration (Beclin-1; 1 µM) was 7.848 ng/mL, the Beclin-1 concentration (Beclin-1; 5 µM) was 6.686 ng/mL and the “% of cells without anti-topoisomerase IIα antibody” value (topoisomerase IIα; MCF-7, 1 µM) was 8.6%. For the same compound, the “% of cells without anti-topoisomerase IIα antibody” value (topoisomerase IIα; MCF-7, 5 µM) was 11.8%.
